Tests used:
wild-type (WT) KRAS = experiment: RAS activation assay, GTP-KRAS in wild-type cells; format: cell-based
Description: Actually, mutant KRAS would interfere the balance between GEFs and GAPs, resulting in locking in the active GTP-bound KRAS state and aberrant stimulation of its downstream signaling.
Significant increased expression of Immune cells has been observed in Compound 1 treatment.

p53 = experiment: Expression of p53 and apoptosis-related genes (qRT-PCR); format: cell-based; details: cancer cells
Experimental: FIG. 11 depicts compound I Targeting p53 (mRNA levels of p53, Puma, and Noxa in cells at 6 hours after compound I treatment. mRNA levels were quantified by qRT-PCR. Data were normalized to GAPDH expression and plotted relative to cells treated with DMSO as control)

CCCCc1ncc(C(=O)C2CC=C(C(N)=O)N2)cc1C(=O)OCC (stereo not drawn) [Compound 1]
GTP binding affinity in wild type KRAS (wild-type (WT) KRAS; wild type KRAS): no effect on GTP binding affinity | effect on GTP-KRAS in cells with wild-type KRAS (wild-type (WT) KRAS; wild-type (WT) KRAS cells): no effect was observed | expression of p53 (p53): upregulating the expression of p53

— US20230202981A1, “NOVEL SMALL MOLECULES FOR TARGETED DEGRADATION OF UNTARGETABLE KRAS IN CANCER THERAPY” (Pillai Universal LLC, priority 2020, published 2023)
